Assay results: patent publication US20130029970A1 (priority 2009, published 2013)
Where two headings read alike, the source gives them in different places.

Experiments:
human CB1 (hCB1) = target: T1, human CB1 (hCB1) (Homo sapiens, UniProt P21554); assay: 35S GTPγS binding assay, hCB1 agonist; type: biochemical; details: GTPγS agonist, HEK-293 membranes; read-out: hCB1 EC50 (GTPyS ag)
T1 construct: (cDNA clone) CNR01L000
Description: cDNA expression clones for human CB1 (hCB1, Genbank Accession No. AY225225) and human CB2 (hCB2, Genbank Accession No. AY242132) expressed in vector pcDNA3.1+ were purchased from UMR cDNA Resource Center, Rolla, Mo. (Clone ID CNR01L000 for hCB1; CNR0200000 for hCB2).
Stable, HEK-293-derived cell lines that recombinantly express hCBI or hCB2 were established. In brief, the clone hCB1 (CNR IL) or hCB2 (CNR2) was transfected into human embryonic kidney cells (HEK-293) using Lipofectamine 2000 (Gibco, Cat#11668-019) according to the manufacturer's protocol. Transfected clones were isolated by single colony purification and clones were screened for receptor expression using a whole cell, ^3H—CP 55,940 radioligand binding assay. HEK-293 stable cells were maintained in Dulbecco's modified Eagles medium (DMEM) containing 10% fetal bovine serum, 2 mM L-glutamine and 0.5 mg/mL G-418.
Membranes were isolated from transfected cells as follows. Monolayers of cultured cells were washed twice with phosphate-buffered saline (PBS). Cells were scraped into 20 mM HEPES, pH 7.4, 10 mM EDTA containing complete cocktail protease inhibitors (Roche, Catalog #11 697 498 001) and were homogenized by an electric-powered mechanical probe homogenizer (Omni GLH; probe G7-195S) for 40 seconds at 7000 rpm. Homogenates were centrifuged 10 minutes at 1000×g at 4° C. The supernatant was collected and was centrifuged for 1 hour at 40,000×g. The supernatant was then decanted and the resulting pellet was re-suspended in 20 mM HEPES, pH 7.4, 5 mM MgCl2, 1 mM EDTA, 10% sucrose with complete cocktail protease inhibitors. Protein concentration of membrane suspensions were measured by Bradford Protein Assay using bovine serum albumin as the standard (BioRad catalog #500-0006). Protein concentrations of membrane suspensions were adjusted with the final buffer in the range of 5 to 10 mg/mL and were stored at −80° C. until further use.
Functional assays which monitor G-protein coupled receptor or downstream cellular responses can be used to characterize potential CB1 receptor and/or CB2 receptor agonist or antagonist activities. Direct activation (or inhibition of activation) can be monitored using a GTPγS assay (membrane-based assay) or cAMP assay (whole cell-based assay).
^35S GTPγS binding assays were performed by incubating recombinant cell membranes prepared above (5 μg) in the presence of scintillation proximity assay beads (SPA beads, Catalog #RPNQ0252 GE Healthcare, Buckinghamshire, England) in GTPγS binding buffer [50 mM HEPES (pH 7.4), 100 mM NaCl, 5 mM MgCl2, 0.001% saponin (Sigma catalog #S4521)] supplemented with 20 uM GDP (Sigma catalog #G7127) in the presence or absence of test compound. The reaction was carried out in 96-well microplates with 0.1 nM [^35S]GTPγS (specific activity=1250 Ci/mmol; Perkin Elmer catalog #NEG030X250UC) in a final volume of 100 uL. After a 90 min room temperature incubation, the reaction was analyzed using a scintillation counter (Perkin Elmer Microbeta instrument). Binding data were analyzed using GraphPad Prism.

human CB2 receptors = target: T2, human CB2 receptors (Homo sapiens, UniProt P34972); assay: cAMP assay in HEK-293 cells, hCB2 agonist; type: cell-based
T2 construct: (cDNA clone) CNR0200000
T2 sequence (P34972 whole entry): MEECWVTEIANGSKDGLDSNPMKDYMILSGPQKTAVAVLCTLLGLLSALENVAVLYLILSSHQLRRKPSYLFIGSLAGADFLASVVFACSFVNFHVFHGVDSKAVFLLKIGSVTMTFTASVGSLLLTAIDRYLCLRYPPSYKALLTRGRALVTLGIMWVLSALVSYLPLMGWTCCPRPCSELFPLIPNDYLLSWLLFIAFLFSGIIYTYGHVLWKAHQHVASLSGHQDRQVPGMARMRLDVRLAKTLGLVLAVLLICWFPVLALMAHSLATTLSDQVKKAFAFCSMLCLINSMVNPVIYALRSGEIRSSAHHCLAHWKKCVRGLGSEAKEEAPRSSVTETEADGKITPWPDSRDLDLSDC
Outline: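 HEK-293 cells stably expressing human CB2, suspended at 1,500,000 cells/mL in HBSS with 10 mM HEPES and 0.1% fatty-acid-free BSA, exposed to test compound plus forskolin (90 uM in the 3× compound solution) for 30 min at 37° C.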

[1] = target: T3, recombinant human cannabinoid receptor CB1 (Homo sapiens, UniProt P21554); assay: Cannabinoid receptor radioligand binding assay, [3H]-CP 55,940 displacement, hCB1
T3 construct: (cDNA clone) CNR01L000
T3 sequence (P21554 whole entry): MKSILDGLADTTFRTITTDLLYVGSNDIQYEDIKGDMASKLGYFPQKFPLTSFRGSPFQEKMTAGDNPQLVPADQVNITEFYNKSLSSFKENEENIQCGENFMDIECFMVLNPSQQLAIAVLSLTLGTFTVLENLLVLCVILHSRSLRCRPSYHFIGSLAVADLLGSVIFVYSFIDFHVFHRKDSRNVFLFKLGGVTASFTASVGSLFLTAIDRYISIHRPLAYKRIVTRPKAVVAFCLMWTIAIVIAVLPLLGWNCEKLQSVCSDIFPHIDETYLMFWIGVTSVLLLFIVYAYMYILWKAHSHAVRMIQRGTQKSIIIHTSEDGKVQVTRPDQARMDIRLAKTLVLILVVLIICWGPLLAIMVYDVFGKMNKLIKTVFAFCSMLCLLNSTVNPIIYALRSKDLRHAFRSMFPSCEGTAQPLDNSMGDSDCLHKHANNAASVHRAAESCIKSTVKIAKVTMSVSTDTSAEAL
Outline: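 Membranes from HEK-293 cells stably expressing human CB1, 2-10 μg protein, incubated 90 min at room temperature with 0.5 nM [3H]-CP 55,940 in Tris-HCl pH 7.5, MgCl2, EDTA and 0.1% fatty-acid-free BSA. Bound radioactivity counted after rapid filtration; nonspecific binding defined with 1 μM unlabeled CP 55,940.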

human CB2 (hCB2) = target: T4, human CB2 (hCB2) (Homo sapiens, UniProt P34972); assay: 35S GTPγS binding assay, hCB2 agonist; type: biochemical
T4 construct: (cDNA clone) CNR0200000
T4 sequence (P34972 whole entry): as the sequence (P34972 whole entry) above
Outline: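 Membranes (5 μg) from cells transfected with hCB2 cDNA in pcDNA3.1+ incubated with SPA beads, 0.1 nM [35S]GTPγS and 20 uM GDP in 50 mM HEPES pH 7.4, 100 mM NaCl, 5 mM MgCl2, 0.001% saponin, ± test compound. Incubation 90 min at room temperature; bound label read by scintillation counting.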

human CB1 receptors = target: T5, human CB1 receptors (Homo sapiens, UniProt P21554); assay: cAMP assay in HEK-293 cells, hCB1 agonist; type: cell-based; details: inhibition of forskolin-stimulated cAMP, HEK-293 cells
T5 construct: (cDNA clone) CNR01L000
T5 sequence (P21554 whole entry): as the sequence (P21554 whole entry) above
Outline: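 Stable hCB1 HEK-293 cells suspended in HBSS with 10 mM HEPES and 0.1% fatty acid-free BSA, incubated 30 min at 37° C. with compound plus forskolin (90 uM in the 3× compound solution). Lysed cAMP measured by enzyme-fragment kit; EC50 = 50% inhibition of forskolin-stimulated cAMP (forskolin maximum = 100%), sigmoidal fit.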

[2] = target: T6, recombinant human cannabinoid receptor CB2 (Homo sapiens, UniProt P34972); assay: Cannabinoid receptor radioligand binding assay, [3H]-CP 55,940 displacement, hCB2
T6 construct: (cDNA clone) CNR0200000
T6 sequence (P34972 whole entry): as the sequence (P34972 whole entry) above
Outline: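 Membranes from hCB2-transfected cells, prepared by 1000×g then 40,000×g centrifugation, resuspended in 20 mM HEPES pH 7.4, 5 mM MgCl2, 1 mM EDTA, 10% sucrose.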

[3] = system: PBQ-induced writhing in the mouse; assay: Phenylbenzoquinone-induced (PBQ) writhing model
[4] = GTPγS agonist, HEK-293 membranes, read-out: hCB2 EC50 (GTPyS ag)

T1 sequence (P21554 whole entry): as the sequence (P21554 whole entry) above

SMILES	EC50 (human CB1 (hCB1)) [nM]	IC50 [1] [nM]	EC50 (human CB2 receptors) [nM]	EC50 (human CB2 (hCB2)) [nM]	Number of Writhes ([3]; Dose 30, IP)	also measured
COc1ccc(C(=O)c2cc3cc(C)n(CCN4CCC(F)(F)CC4)c3s2)cn1 [Compound 152, (6-(2-(4,4-difluoropiperidin-1-yl)ethyl)-5-methyl-6H-thieno[2,3-b]pyrrol-2-yl)(6-methoxypyridin-3-yl)methanone]	1000 to 10000	< 100	–	–	–	EC50 (human CB2 receptors; inhibition of forskolin-stimulated cAMP, HEK-293 cells, read-out: hCB2 EC50 (cAMP ag)): < 100 nM; EC50 (human CB2 (hCB2); [4]): < 100 nM
COc1ccc(C(=O)c2cc3cc(C)n(CCCNS(=O)(=O)C(F)(F)F)c3s2)cc1 [Compound 154, 1,1,1-trifluoro-N-(3-(2-(4-methoxybenzoyl)-5-methyl-6H-thieno[2,3-b]pyrrol-6-yl)propyl)methanesulfonamide]	> 10000	158	100 to 1000	1000 to 10000	–	–
COc1ccc(C(=O)c2cc3cc(C)n(CCN4CC5CC4CO5)c3s2)cn1 (centres unmarked) [Compound 169, (6-(2-(2-oxa-5-azabicyclo[2.2.1]heptan-5-yl)ethyl)-5-methyl-6H-thieno[2,3-b]pyrrol-2-yl)(6-methoxypyridin-3-yl)methanone]	> 10000	100 to 1000	–	–	–	hCB1 EC50 (cAMP ag, nM) (human CB1 receptors): NS (NS means “Not Significant,” which means less than 30% agonist activity when compared to the positive control.); EC50 (human CB2 (hCB2); [4]): 1000 to 10000 nM
COc1ccc(C(=O)c2cc3cc(C)n(CC4CCCCO4)c3s2)cn1 (centres unmarked) [Compound 173, (6-methoxypyridin-3-yl)(5-methyl-6-((tetrahydro-2H-pyran-2-yl)methyl)-6H-thieno[2,3-b]pyrrol-2-yl)methanone]	1000 to 10000	< 100	< 100	100 to 1000	–	–
COc1ccc(C(=O)c2cc3cc(C)n(CC4CCSCC4)c3s2)cn1 [Compound 175, (6-methoxypyridin-3-yl)(5-methyl-6-((tetrahydro-2H-thiopyran-4-yl)methyl)-6H-thieno[2,3-b]pyrrol-2-yl)methanone]	100 to 1000	< 100	< 100	< 100	–	IC50 [2]: 1000 to 10000 nM
COc1cc(F)c(C(=O)c2cc3cc(C)n(CC4CCOCC4)c3s2)c(F)c1 [Compound 180, (2,6-difluoro-4-methoxyphenyl)(5-methyl-6-((tetrahydro-2H-pyran-4-yl)methyl)-6H-thieno[2,3-b]pyrrol-2-yl)methanone]	1000 to 10000	100 to 1000	< 100	< 100	–	–
Cc1cc2cc(C(=O)c3cccc(Cl)c3Cl)sc2n1CCN1CCOCC1 [Compound I-1]	–	–	–	–	0.4 ± 0.31	Number of Writhes ([3]; Dose 30, PO): 7.5 ± 1.91
Cc1cc2cc(C(=O)c3ccc(Cl)cc3)sc2n1CCN1CCOCC1 [Compound I-6]	–	–	–	–	–	Number of Writhes ([3]; Dose 30, PO): 3.7 ± 0.7
Cc1cc2cc(C(=O)c3ccc(Cl)cc3Cl)sc2n1CCN1CCOCC1 [Compound I-10]	–	–	–	–	–	Number of Writhes ([3]; Dose 30, PO): 3.7 ± 0.7
Cc1cc2cc(C(=O)c3ccccn3)sc2n1CCN1CCOCC1 [Compound I-16]	–	–	–	–	10.0 ± 2.76	–
CCS(=O)(=O)n1c(C)cc2cc(C(=O)c3cccc(Cl)c3Cl)sc21 [Compound I-25]	–	–	–	–	5.9 ± 2.46	–
Cc1cc2cc(C(=O)c3ccncn3)sc2n1CCN1CCOCC1 [Compound I-34]	–	–	–	–	3.4 ± 0.97	–
